Patent publication US20130177904A1, “ARNT ISOFORM 3 AS A PREDICTOR OF AMINOFLAVONE RESPONSIVENESS IN CANCER CELLS” (UNIVERSITY OF MARYLAND, BALTIMORE, priority 2010, published 2013)
pIC50: −log10 of the molar value.

Columns and labels:
[1] = test system: caspases 3/7 in MDA-MB-231; assay: Caspase Glo-3/7 Assay; format: cell-based, Human; conditions: MDA-MB-231, relative to vehicle treated cells, FIG. 2C
Experimental: (§1) The Caspase Glo-3/7 Assay (Promega) was used to measure the combined activities of caspases-3 and -7. In brief, cells were seeded in a white-walled 96-well plate (Nunc) at a density of 2,000 cells/well and allowed to attach overnight. AF was added the following day in final concentrations of 0.1 nM to 100 μM in replicas of 8. Caspase activity was measured 5 days later by adding the Caspase Glo-3/7 reagent to the plate and incubating for another 2 hours. Caspase cleavage results in the release a substrate for luciferase that was measured using a LumiCount luminometer (Packard). Caspase activity levels were normalized to the amount of viable cells, determined by the CellTiter-Glo Luminescent Cell Viability Assay (Promega) performed in parallel to the caspase assay. Data analysis to obtain the mean and standard error as well as graphing employed Excel® (Microsoft Corporation).

[2] = test system: caspases 3/7 in MDA-MBA-468; assay: Caspase Glo-3/7 Assay; format: cell-based, Human; conditions: MDA-MBA-468, relative to vehicle treated cells, FIG. 2C
Experimental: as §1

caspases 3/7 in MCF7 = assay: Caspase Glo-3/7 Assay; format: cell-based, Human; conditions: MCF7, relative to vehicle treated cells, FIG. 2C
Experimental: as §1

caspases 3/7 in T47D = assay: Caspase Glo-3/7 Assay; format: cell-based, Human; conditions: relative to vehicle treated cells, FIG. 2C
Experimental: as §1

[3] = test system: gamma-H2AX in MDA-MBA-468; assay: Western blot analysis for phosphorylated H2AX; format: cell-based, Human; conditions: MDA-MBA-468, AF for 24 hrs, FIG. 2B
Experimental: (§2) Western blot analysis for phosphorylated H2AX (γ-H2AX) was performed by first growing cells to between 50% and 80% confluence and treating them with concentrations of AF for 24 hrs, according to the concentration at which 50% of the proliferation was inhibited (IC50). Cells were collected and centrifuged at 1,000×g for 15 minutes at 4° C. Histones were released by the method described by Meng et al. (Cancer Res, 65(12):5337-43 (2005)). Briefly, pellets were washed twice in PBS, homogenized in 0.2 mol/L H2SO4, and centrifuged at 13,000×g. The supernatant was removed and 0.25 volume of 100% (w/v) trichloroacetic acid was added to precipitate the histones. Samples were then centrifuged again at 13,000×g for 15 mins at 4° C. The supernatant was removed and the remaining pellet was suspended in 100% ethanol overnight. A final centrifugation step was performed at 13,000×g for 15 mins at 4° C. The solute was then dissolved in nuclease-free water. Protein concentration was determined using the Bio-Rad Protein Assay (Bio-Rad, CA). 30 μg of protein was resolved on 4-20% Tris-glycine precast gels (Invitrogen). Proteins were transferred onto a PVDF membrane (Immobilon-P, Millipore) and then blocked with 5% milk in TBST (0.1% Tween-20 in 1× Tris-buffered saline—pH 7.4) for 1 hr. […]

[4] = test system: gamma-H2AX in MDA-MBA-231; assay: Western blot analysis for phosphorylated H2AX; format: cell-based, Human; conditions: MDA-MBA-231, AF for 24 hrs, FIG. 2B
Experimental: as §2

TK10 = TK10 renal cell line, NIH dose response data; cited from earlier work
MDA-MB-231 = assay: MTS cell proliferation assay; format: cell-based; conditions: Homo sapiens, 120 h; MDA-MB-231 (ER−), 5 days after treatment, estimated from graph FIG. 1; read-out: IC50 (50% Inhibitory Concentration)
Experimental: (§3) The CellTiter 96 Aqueous MTS Reagent (Promega, Cat. G5421 WI) was employed to measure the effects of AF on cell proliferation. Briefly, cells in 100 μl were seeded in 96-well plates (Nunc) at a density of 2,000 cells/well and allowed to attach overnight. AF was added the following day in final concentrations of 0.1 nM to 100 μM in replicas of 8. Proliferation was measured 5 days later by adding 20 μl MTS reagent to the plates and incubation at 37° C. for 2 hours. Viable cells converted the MTS reagent to a formazan product, which was measured 4 hours later at 490 nm using a Synergy HT Multi-Detection Microplate Reader, and KC4 software (Bio-Tek). Cell proliferation was compared to DMSO treated controls as a percentage, against the background growth at the time of AF treatment.
(§4) For IC50 (50% Inhibiting Concentration) determination, vehicle treated cells were deemed as 100% cell growth. Percent growth inhibition was calculated by dividing AF treated MTS values by MTS values of vehicle treated cells, subtracting background (media alone without cells) from both prior to calculations. […] The data as calculated is more representative of percent cell survival and therefore defined as Inhibitory Concentrations (IC50) rather than GI50 values. That said, they provide for a highly accurate means for comparing effects of AF. IC50 values were estimated directly from the graph (FIG. 1), though model fitting employing BiodataFit 1.02 (Chang Biosciences, found on the world wide web at changbioscience.com/stat/ec50ht.html) provided for highly similar results with model fitting correlations of 0.85 or above and generally small SEE values (standard error of the IC50 estimate).

Hs578t = assay: MTS cell proliferation assay; format: cell-based; conditions: Homo sapiens, Hs-578T, 120 h; Hs578t (ER−), 5 days after treatment, estimated from graph FIG. 1; read-out: IC50 (50% Inhibitory Concentration)
Experimental: as §3, §4

T47D = assay: MTS cell proliferation assay; format: cell-based; conditions: Homo sapiens, 120 h; T47D (ER+), 5 days after treatment, estimated from graph FIG. 1; read-out: IC50 (50% Inhibitory Concentration)
Experimental: as §3, §4

MDA-MB-468 = assay: MTS cell proliferation assay; format: cell-based; conditions: Homo sapiens, 120 h; MDA-MB-468 (ER−), 5 days after treatment, estimated from graph FIG. 1; read-out: IC50 (50% Inhibitory Concentration)
Experimental: as §3, §4

MCF7 = assay: MTS cell proliferation assay; format: cell-based; conditions: Homo sapiens, 120 h; MCF7 (ER+), 5 days after treatment, estimated from graph FIG. 1; read-out: IC50 (50% Inhibitory Concentration)
Experimental: as §3, §4

Caspases 3 and 7 activity [1]: do not
induction of caspases 3/7 (combined activity) [2]: marked induction
induction of caspases 3/7 (combined activity) (caspases 3/7 in T47D): marked induction
pIC50 (MDA-MB-231): 4.15
pIC50 (T47D): 6.96
pIC50 (MDA-MB-468): 8.40
pIC50 (MCF7): 7.15
Structure (SMILES): Cc1c(F)c(N)c2c(=O)cc(-c3ccc(N)c(F)c3)oc2c1F [AF, 5-amino-2-(4-amino-3-fluorophenyl)-6,8-difluoro-7-methylchromen-4-one]
induction of caspases 3/7 (combined activity) (caspases 3/7 in MCF7): not activated
presence of gamma-H2AX (double stranded DNA breaks) [3]: observed
presence of gamma-H2AX (double stranded DNA breaks) [4]: not observed at all
AF sensitivity (TK10): AF sensitive
pIC50 (Hs578t): 4.70
